Results: patent US20240376163A1, “PEPTIDE FOR INHIBITING CALCINEURIN AND USE THEREOF” (Seoul National University R&DB Foundation, priority 2023, published 2024)

Test system: Jurkat T cells
Test: mRNA sequencing of activated Jurkat T cells
Assay type: cell-based, human
Details: P + I

Sequence: PEITVTPPTP [CABIN1-L-1-2]
- MSMO1 FPKM (Jurkat T cells): 52.664 FPKM
- MT2A FPKM (Jurkat T cells): 409.501 FPKM
- MXD3 FPKM (Jurkat T cells): 20.08 FPKM
- MYB FPKM (Jurkat T cells): 48.107 FPKM
- MZB1 FPKM (Jurkat T cells): 23.597 FPKM
- N4BP3 FPKM (Jurkat T cells): 2.499 FPKM
- NAA16 FPKM (Jurkat T cells): 3.877 FPKM
- NCKAP1 FPKM (Jurkat T cells): 10.157 FPKM
- NCOA3 FPKM (Jurkat T cells): 11.775 FPKM
- NDRG1 FPKM (Jurkat T cells): 128.386 FPKM
- NDRG2 FPKM (Jurkat T cells): 2.149 FPKM
- NEDD9 FPKM (Jurkat T cells): 4.972 FPKM
- NFATC1 FPKM (Jurkat T cells): 3.916 FPKM
- NFKB1 FPKM (Jurkat T cells): 44.661 FPKM
- NFKB2 FPKM (Jurkat T cells): 71.869 FPKM
- NLRC3 FPKM (Jurkat T cells): 5.507 FPKM
- NME4 FPKM (Jurkat T cells): 17.501 FPKM
- NOTCH2 FPKM (Jurkat T cells): 12.916 FPKM
- NOTCH3 FPKM (Jurkat T cells): 0.859 FPKM
- NPDC1 FPKM (Jurkat T cells): 5.64 FPKM
- NR4A3 FPKM (Jurkat T cells): 1.977 FPKM
- NREP FPKM (Jurkat T cells): 6.879 FPKM
- NRP1 FPKM (Jurkat T cells): 14.016 FPKM
- NSG1 FPKM (Jurkat T cells): 3.929 FPKM
- NSMF FPKM (Jurkat T cells): 3.265 FPKM
- NT5E FPKM (Jurkat T cells): 12.217 FPKM
- NTRK1 FPKM (Jurkat T cells): 1.657 FPKM
- ODC1 FPKM (Jurkat T cells): 374.309 FPKM
- OPTN FPKM (Jurkat T cells): 14.333 FPKM
- OSBPL5 FPKM (Jurkat T cells): 3.123 FPKM
- PAM FPKM (Jurkat T cells): 1.934 FPKM
- PCNA-AS1 FPKM (Jurkat T cells): 71.806 FPKM
- PDCD1 FPKM (Jurkat T cells): 1.974 FPKM
- PDGFA FPKM (Jurkat T cells): 8.169 FPKM
- PDGFC FPKM (Jurkat T cells): 2.913 FPKM
- PDIA6 FPKM (Jurkat T cells): 128.39 FPKM
- PDLIM1 FPKM (Jurkat T cells): 5.135 FPKM
- PELI2 FPKM (Jurkat T cells): 8.166 FPKM
- PEX5L FPKM (Jurkat T cells): 1.299 FPKM
- PHACTR2 FPKM (Jurkat T cells): 2.791 FPKM
- PHLDB2 FPKM (Jurkat T cells): 3.404 FPKM
- PI16 FPKM (Jurkat T cells): 9.625 FPKM
- PKIG FPKM (Jurkat T cells): 11.17 FPKM
- PKM FPKM (Jurkat T cells): 1838.428 FPKM
- PLAC8 FPKM (Jurkat T cells): 1.896 FPKM
- PLEC FPKM (Jurkat T cells): 25.453 FPKM
- PLS3 FPKM (Jurkat T cells): 0.37 FPKM
- POTEE FPKM (Jurkat T cells): 1.196 FPKM
- POU2AF1 FPKM (Jurkat T cells): 2.971 FPKM
- POU2F2 FPKM (Jurkat T cells): 4.109 FPKM
- PPIF FPKM (Jurkat T cells): 106.533 FPKM
- PPP1R15A FPKM (Jurkat T cells): 76.265 FPKM
- PPP1R16B FPKM (Jurkat T cells): 26.306 FPKM
- PRDM8 FPKM (Jurkat T cells): 40.783 FPKM
- PRNP FPKM (Jurkat T cells): 41.922 FPKM
- PSMB10 FPKM (Jurkat T cells): 125.268 FPKM
- PTPN6 FPKM (Jurkat T cells): 20.806 FPKM
- PTPN7 FPKM (Jurkat T cells): 78.61 FPKM
- PXYLP1 FPKM (Jurkat T cells): 4.92 FPKM
- QPRT FPKM (Jurkat T cells): 10.818 FPKM
- RAB37 FPKM (Jurkat T cells): 1.369 FPKM
- RASGRP1 FPKM (Jurkat T cells): 3.909 FPKM
- RASGRP2 FPKM (Jurkat T cells): 2.335 FPKM
- RB1 FPKM (Jurkat T cells): 49.538 FPKM
- RCBTB2 FPKM (Jurkat T cells): 7.77 FPKM
- RCOR2 FPKM (Jurkat T cells): 1.298 FPKM
- RGS2 FPKM (Jurkat T cells): 3.39 FPKM
- RHOU FPKM (Jurkat T cells): 1.378 FPKM
- RNF19A FPKM (Jurkat T cells): 12.101 FPKM
- RNF212 FPKM (Jurkat T cells): 1.401 FPKM
- RORA FPKM (Jurkat T cells): 1.998 FPKM
- RRAS2 FPKM (Jurkat T cells): 20.023 FPKM
- RTN4R FPKM (Jurkat T cells): 1.548 FPKM
- RUNX1 FPKM (Jurkat T cells): 28.867 FPKM
- RUNX3 FPKM (Jurkat T cells): 28.166 FPKM
- SASH3 FPKM (Jurkat T cells): 46.514 FPKM
- SBK1 FPKM (Jurkat T cells): 5.945 FPKM
- SCG2 FPKM (Jurkat T cells): 86.711 FPKM
- SCHIP1 FPKM (Jurkat T cells): 1.333 FPKM
- SEPT3 FPKM (Jurkat T cells): 0.994 FPKM
- SEPT6 FPKM (Jurkat T cells): 44.841 FPKM
- SEPT9 FPKM (Jurkat T cells): 39.741 FPKM
- SERINC5 FPKM (Jurkat T cells): 3.312 FPKM
- SERPINB8 FPKM (Jurkat T cells): 23.508 FPKM
- SERPINE2 FPKM (Jurkat T cells): 3.911 FPKM
- SERTAD1 FPKM (Jurkat T cells): 14.426 FPKM
- SGK1 FPKM (Jurkat T cells): 105.258 FPKM
- SH2D1A FPKM (Jurkat T cells): 16.781 FPKM
- SH2D2A FPKM (Jurkat T cells): 22.586 FPKM
- SH3TC1 FPKM (Jurkat T cells): 1.895 FPKM
- SIVA1 FPKM (Jurkat T cells): 51.964 FPKM
- SLAMF1 FPKM (Jurkat T cells): 0.275 FPKM
- SLAMF7 FPKM (Jurkat T cells): 3.544 FPKM
- SLAMF8 FPKM (Jurkat T cells): 5.828 FPKM
- SLC22A1 FPKM (Jurkat T cells): 42.379 FPKM
- SLC27A2 FPKM (Jurkat T cells): 41.908 FPKM
- SLC29A4 FPKM (Jurkat T cells): 1.658 FPKM
- SLC35E4 FPKM (Jurkat T cells): 1.517 FPKM
- SLC35G2 FPKM (Jurkat T cells): 11.385 FPKM
- SMAD1 FPKM (Jurkat T cells): 3.995 FPKM
- SMOX FPKM (Jurkat T cells): 18.934 FPKM
- SMPD1 FPKM (Jurkat T cells): 18.206 FPKM
- SORBS1 FPKM (Jurkat T cells): 0.511 FPKM
- SOX4 FPKM (Jurkat T cells): 55.775 FPKM
- SPINT1 FPKM (Jurkat T cells): 1.712 FPKM
- SPRY1 FPKM (Jurkat T cells): 4.901 FPKM
- SPRY4 FPKM (Jurkat T cells): 7.991 FPKM
- SPSB1 FPKM (Jurkat T cells): 9.593 FPKM
- SPTBN2 FPKM (Jurkat T cells): 2.053 FPKM
- SRGN FPKM (Jurkat T cells): 9.743 FPKM
- SSBP2 FPKM (Jurkat T cells): 5.549 FPKM
- ST3GAL6 FPKM (Jurkat T cells): 5.239 FPKM
- STAT2 FPKM (Jurkat T cells): 36.117 FPKM
- STAT3 FPKM (Jurkat T cells): 74.439 FPKM
- STAU2 FPKM (Jurkat T cells): 5.719 FPKM
- STMN3 FPKM (Jurkat T cells): 7.407 FPKM
- STX1A FPKM (Jurkat T cells): 13.882 FPKM
- SYK FPKM (Jurkat T cells): 6.222 FPKM
- TAGAP FPKM (Jurkat T cells): 8.731 FPKM
- TAL1 FPKM (Jurkat T cells): 18.466 FPKM
- TAP2 FPKM (Jurkat T cells): 6.702 FPKM
- TAPBPL FPKM (Jurkat T cells): 20.693 FPKM
- TBC1D4 FPKM (Jurkat T cells): 13.191 FPKM
- TBC1D5 FPKM (Jurkat T cells): 3.021 FPKM
- TBKBP1 FPKM (Jurkat T cells): 22.205 FPKM
- TCF3 FPKM (Jurkat T cells): 36.607 FPKM
- TCF7 FPKM (Jurkat T cells): 11.184 FPKM
- TCF12 FPKM (Jurkat T cells): 29.903 FPKM
- TDRD9 FPKM (Jurkat T cells): 1.888 FPKM
- TGFBR2 FPKM (Jurkat T cells): 36.254 FPKM
- THEM6 FPKM (Jurkat T cells): 2.542 FPKM
- THEMIS FPKM (Jurkat T cells): 35.627 FPKM
- TIAF1 FPKM (Jurkat T cells): 9.375 FPKM
- TIAM1 FPKM (Jurkat T cells): 9.551 FPKM
- TIAM2 FPKM (Jurkat T cells): 0.301 FPKM
- TLE1 FPKM (Jurkat T cells): 1.647 FPKM
- TMCC3 FPKM (Jurkat T cells): 7.278 FPKM
- TNFAIP3 FPKM (Jurkat T cells): 35.424 FPKM
- TNFRSF10B FPKM (Jurkat T cells): 36.431 FPKM
- TNFSF10 FPKM (Jurkat T cells): 49.452 FPKM
- TNFSF14 FPKM (Jurkat T cells): 4.255 FPKM
- TPM4 FPKM (Jurkat T cells): 178.336 FPKM
- TPST2 FPKM (Jurkat T cells): 29.147 FPKM
- TRAF3IP3 FPKM (Jurkat T cells): 11.237 FPKM
- TRIB1 FPKM (Jurkat T cells): 4.108 FPKM
- TRIM21 FPKM (Jurkat T cells): 42.08 FPKM
- TTLL1 FPKM (Jurkat T cells): 3.295 FPKM
- UBE2L6 FPKM (Jurkat T cells): 167.347 FPKM
- UHRF1 FPKM (Jurkat T cells): 6.903 FPKM
- VAMP1 FPKM (Jurkat T cells): 14.752 FPKM
- VAT1 FPKM (Jurkat T cells): 40.336 FPKM
- VAV1 FPKM (Jurkat T cells): 22.182 FPKM
- WARS FPKM (Jurkat T cells): 112.259 FPKM
- WDR76 FPKM (Jurkat T cells): 8.215 FPKM
- XCL1 FPKM (Jurkat T cells): 1.144 FPKM
- XCL2 FPKM (Jurkat T cells): 2.074 FPKM
- XIRP1 FPKM (Jurkat T cells): 13.281 FPKM
- XRCC6BP1 FPKM (Jurkat T cells): 9.204 FPKM
- YPEL1 FPKM (Jurkat T cells): 4.38 FPKM
- ZFP36L1 FPKM (Jurkat T cells): 136.279 FPKM
- ZFP36L2 FPKM (Jurkat T cells): 9.774 FPKM
- ZNF280D FPKM (Jurkat T cells): 2.132 FPKM
- ZNF367 FPKM (Jurkat T cells): 2.274 FPKM
- ZNF480 FPKM (Jurkat T cells): 6.823 FPKM
- ZNF521 FPKM (Jurkat T cells): 1.965 FPKM
- ZNF652 FPKM (Jurkat T cells): 2.469 FPKM
- ZNF704 FPKM (Jurkat T cells): 0.183 FPKM
- ZNF827 FPKM (Jurkat T cells): 1.372 FPKM
- ZNFX1 FPKM (Jurkat T cells): 19.096 FPKM
- ZP4 FPKM (Jurkat T cells): 5.182 FPKM
- ZYX FPKM (Jurkat T cells): 85.489 FPKM
- ADORA2A FPKM: 1.475 FPKM
- AGK FPKM: 14.306 FPKM
- ARHGEF3 FPKM: 8.674 FPKM
- ASAP1 FPKM: 9.052 FPKM
- ATG14 FPKM: 11.252 FPKM
- ATP6V1B2 FPKM: 60.661 FPKM
- BCL2L1 FPKM: 41.852 FPKM
- C3 FPKM: 1.329 FPKM
- C10orf54 FPKM: 0.487 FPKM
- CABP1 FPKM: 1.689 FPKM
- CCDC64 FPKM: 11.039 FPKM
- CCL1 FPKM: 0.415 FPKM
- CCL3 FPKM: 0.502 FPKM
- CCL3L1 FPKM: 0.079 FPKM
- CCL3L3 FPKM: 0.079 FPKM
- CCL4 FPKM: 4.062 FPKM
- CCL4L1 FPKM: 0.328 FPKM
- CCL4L2 FPKM: 0.328 FPKM
- CCL20 FPKM: 1.279 FPKM
- CCND2 FPKM: 0.99 FPKM
- CD27-AS1 FPKM: 4.613 FPKM
- CD27 FPKM: 3.4 FPKM
- CD55 FPKM: 12.082 FPKM
- CD70 FPKM: 7.606 FPKM
- CD97 FPKM: 21.496 FPKM
- CD200 FPKM: 0.094 FPKM
- COL27A1 FPKM: 5.729 FPKM
- CREB5 FPKM: 1.966 FPKM
